Patent US7994179B2, “Carbamoyl compounds as DGAT1 inhibitors 190” (AstraZeneca AB, priority 2007, dated 2011)
pIC50: −log10 of the molar value. Where two headings read alike, the source gives them in different places.

Target: T1, human DGAT1 expressed in insect cell membranes (Homo sapiens, UniProt O75907)
T1 construct: made in house; host or cells: sf9 insect cells (baculovirus), membrane fraction
T1 sequence (O75907 1-488): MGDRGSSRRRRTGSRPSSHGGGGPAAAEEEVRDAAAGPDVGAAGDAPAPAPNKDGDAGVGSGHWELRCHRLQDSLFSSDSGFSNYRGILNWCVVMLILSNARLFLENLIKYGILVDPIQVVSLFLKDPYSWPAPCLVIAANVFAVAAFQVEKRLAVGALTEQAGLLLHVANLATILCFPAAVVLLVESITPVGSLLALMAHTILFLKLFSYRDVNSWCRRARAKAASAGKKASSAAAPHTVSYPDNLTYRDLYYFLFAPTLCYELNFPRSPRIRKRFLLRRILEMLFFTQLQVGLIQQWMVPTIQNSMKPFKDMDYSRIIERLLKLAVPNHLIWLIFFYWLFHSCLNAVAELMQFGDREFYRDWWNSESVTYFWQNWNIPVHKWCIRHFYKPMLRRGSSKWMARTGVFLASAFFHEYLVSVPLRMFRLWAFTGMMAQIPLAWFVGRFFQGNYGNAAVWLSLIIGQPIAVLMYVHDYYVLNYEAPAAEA
Experiment: Human Enzyme Assay: in vitro DGAT1 inhibition, 14C oleoyl coenzyme A incorporation into triolein
Format: biochemical
Protocol: Briefly, sf9 cells were infected with recombinant baculovirus containing human DGAT1 coding sequences and harvested after 48 h. […] The membrane fraction at the interphase was collected, washed, and stored in liquid nitrogen.
The reaction was started by adding ^14C oleoyl coenzyme A (30 μM final concentration) and incubated at room temperature for 30 minutes. The reaction was stopped by adding 200 μl 2-propanol:heptane 7:1. Radioactive triolein product was separated into the organic phase by adding 300 μl heptane and 100 μl 0.1 M carbonate buffer pH 9.5. DGAT1 activity was quantified by counting aliquots of the upper heptane layer by liquid scintillography.
Stated figures are usually a mean of a number of measurements (usually 2 measurements) according to standard practice.

[1] = acetone concentration not stated for these values, usually a mean of 2 measurements, read-out: IC50

Row | pIC50 [1] | Compound | pIC50 | pIC50 (assay acetone concentration of 1.8%, read-out: IC50)
1 | 6.51 | Cc1nc(C)c(-c2ccc(O[C@H]3CC[C@@H](C(=O)O)CC3)c(Cl)c2)nc1C(N)=O [Example 27, (1s,4s)-4-(4-(6-Carbamoyl-3,5-dimethylpyrazin-2-yl)-2-chlorophenoxy)cyclohexanecarboxylic acid] |  | 
2 | 7.38 | Cc1nc(C)c(-c2ccc([C@H]3CC[C@H](CC(=O)NC(C)(C)C(=O)O)CC3)cc2)nc1C(N)=O [Example 4, N-({trans-4-[4-(6-Carbamoyl-3,5-dimethylpyrazin-2-yl)phenyl]cyclohexyl}acetyl)-2-methylalanine] |  | 
3 |  | Cc1nc(C)c(-c2ccc([C@H]3CC[C@H](CC(=O)O)CC3)cc2)nc1C(N)=O [Example 1, {trans-4-[4-(6-Carbamoyl-3,5-dimethylpyrazin-2-yl)phenyl]cyclohexyl}acetic acid] | 7.10 | 7.80
